Assay results reported in ChEMBL document CHEMBL2034824, “Pyridyl-2,5-diketopiperazines as potent, selective, and orally bioavailable oxytocin antagonists: synthesis, pharmacokinetics, and in vivo potency” (J Med Chem, 2012).
In brackets after ≈: the same amount, converted by molar mass.

Assays:
Oxytocin receptor = target: T1, Oxytocin receptor (Homo sapiens, UniProt P30559); test: Displacement of [3H]oxytocin from human oxytocin receptor
T1 sequence (P30559 whole entry): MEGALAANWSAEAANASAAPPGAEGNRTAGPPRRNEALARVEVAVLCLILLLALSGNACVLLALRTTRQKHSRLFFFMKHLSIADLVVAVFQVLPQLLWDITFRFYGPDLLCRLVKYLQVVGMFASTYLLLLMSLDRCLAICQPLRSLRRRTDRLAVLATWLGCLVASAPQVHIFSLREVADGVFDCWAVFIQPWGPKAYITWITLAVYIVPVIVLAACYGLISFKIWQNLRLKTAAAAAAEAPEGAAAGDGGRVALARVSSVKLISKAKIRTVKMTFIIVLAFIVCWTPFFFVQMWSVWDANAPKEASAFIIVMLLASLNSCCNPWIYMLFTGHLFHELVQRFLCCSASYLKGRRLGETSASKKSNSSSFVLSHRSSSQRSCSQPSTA

[1] = AUC in rat at 5 mg/kg, po; format: ADME, organism-based; set-up: dose 5 mg/kg, route oral; details: plasma
[2] = Clearance in rat at 5 mg/kg; format: ADME, organism-based; set-up: dose 5 mg/kg; details: in vivo
[3] = Oral bioavailability in rat at 5 mg/kg; format: ADME, organism-based; details: in vivo
[4] = AUC in dog at 0.6 mg/kg, po; format: ADME, organism-based, Canis lupus familiaris; set-up: dose 0.6 mg/kg, route oral; details: plasma
[5] = Clearance in dog at 0.6 mg/kg; format: ADME, organism-based, Canis lupus familiaris; set-up: dose 0.6 mg/kg; details: in vivo
[6] = Oral bioavailability in dog at 0.6 mg/kg; format: ADME, organism-based, Canis lupus familiaris; details: in vivo
[7] = Aqueous solubility of the compound by HPLC analysis; format: physicochemical
Liver microsomes [8] = test: Intrinsic clearance in rat liver microsomes; format: ADME, Microsome
Liver = test: Intrinsic clearance in dog liver microsomes; format: ADME, Canis lupus familiaris, Microsome
[9] = Intrinsic clearance in cynomolgus monkey liver microsomes; format: ADME, Macaca fascicularis, Microsome
Liver microsomes [10] = test: Intrinsic clearance in human liver microsomes; format: ADME, Microsome
[11] = Lipophilicity, log D of the compound by HPLC analysis; format: physicochemical
serum albumin [12] = target: serum albumin (Homo sapiens, UniProt P02768); test: Binding affinity to human serum albumin; format: ADME; details: read-out: PB (converted)
Sequence of serum albumin (Homo sapiens, UniProt P02768) (P02768 whole entry): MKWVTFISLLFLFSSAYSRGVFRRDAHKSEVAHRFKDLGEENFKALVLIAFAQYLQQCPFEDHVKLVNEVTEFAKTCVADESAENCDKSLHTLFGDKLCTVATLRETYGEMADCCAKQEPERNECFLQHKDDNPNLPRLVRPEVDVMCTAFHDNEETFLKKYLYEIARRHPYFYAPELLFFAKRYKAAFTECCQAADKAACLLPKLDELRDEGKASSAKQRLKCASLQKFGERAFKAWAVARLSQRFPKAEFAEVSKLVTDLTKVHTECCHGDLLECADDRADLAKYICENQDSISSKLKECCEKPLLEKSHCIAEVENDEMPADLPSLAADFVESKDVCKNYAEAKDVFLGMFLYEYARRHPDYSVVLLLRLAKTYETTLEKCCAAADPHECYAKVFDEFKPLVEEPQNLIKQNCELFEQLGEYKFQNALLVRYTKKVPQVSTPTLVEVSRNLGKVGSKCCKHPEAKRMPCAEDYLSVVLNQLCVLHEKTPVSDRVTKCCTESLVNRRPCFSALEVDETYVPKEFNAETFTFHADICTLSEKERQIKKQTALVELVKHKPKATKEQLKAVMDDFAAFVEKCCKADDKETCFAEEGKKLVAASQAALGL

serum albumin [13] = target: serum albumin (Rattus norvegicus, UniProt P02770); test: Binding affinity to rat serum albumin; format: ADME; details: read-out: PB (converted)
Sequence of serum albumin (Rattus norvegicus, UniProt P02770) (P02770 whole entry): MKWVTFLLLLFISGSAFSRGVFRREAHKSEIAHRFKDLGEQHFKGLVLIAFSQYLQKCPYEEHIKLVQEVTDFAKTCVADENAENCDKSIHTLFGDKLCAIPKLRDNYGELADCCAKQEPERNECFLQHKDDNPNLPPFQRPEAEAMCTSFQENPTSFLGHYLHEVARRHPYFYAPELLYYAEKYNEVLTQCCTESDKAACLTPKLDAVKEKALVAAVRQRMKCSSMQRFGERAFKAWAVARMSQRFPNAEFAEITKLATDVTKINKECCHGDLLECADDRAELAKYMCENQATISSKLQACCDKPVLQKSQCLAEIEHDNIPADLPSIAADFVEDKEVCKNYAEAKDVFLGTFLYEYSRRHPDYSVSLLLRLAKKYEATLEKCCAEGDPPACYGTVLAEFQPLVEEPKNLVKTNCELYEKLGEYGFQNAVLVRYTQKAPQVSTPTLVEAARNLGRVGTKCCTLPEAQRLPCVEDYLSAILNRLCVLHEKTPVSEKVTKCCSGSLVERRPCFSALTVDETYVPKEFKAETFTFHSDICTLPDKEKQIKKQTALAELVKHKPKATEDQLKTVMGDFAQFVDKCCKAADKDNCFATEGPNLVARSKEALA

Compound | Ki (Oxytocin receptor) [nM] | AUC [1] [µg·h/mL] | clearance [2] [L/h/kg] | bioavailability [3] [%] | AUC [4] [µg·h/mL] | clearance [5] [L/h/kg] | bioavailability [6] [%] | solubility [7] [mg/mL] | CLH (Liver microsomes [8]) [mL/min/g] | CLH (Liver) [mL/min/g] | CLH [9] [mL/min/g] | CLH (Liver microsomes [10]) [mL/min/g] | logD [11] | fraction unbound (serum albumin [12]) | fraction unbound (serum albumin [13])
Cc1ccc([C@H](C(=O)N2CCOCC2)N2C(=O)[C@@H](C3Cc4ccccc4C3)NC(=O)[C@H]2CC(C)(C)C)cn1 | 0.0794 | 0.77 | 1.2 | 18 | 0.021 | 1.44 | 5 | 0.213 (≈ 411 µM) | 1 | 9 | 21 | 4 | – | – | –
CC[C@H](C)[C@@H]1C(=O)N[C@H](C2Cc3ccccc3C2)C(=O)N1[C@@H](C(=O)N(C)C)c1cc(C)cnc1C | 0.794 | 1.37 | – | – | – | – | – | – | 1 | 2 | 13 | 5 | – | – | –
CCC(CC)[C@@H]1C(=O)N[C@H](C2Cc3ccccc3C2)C(=O)N1[C@@H](C(=O)N(C)C)c1ccc(C)nc1C | 0.0316 | – | – | – | – | – | – | – | 3 | 1 | 29 | 18 | – | – | –
CC[C@H](C)[C@@H]1C(=O)N[C@H](C2Cc3ccccc3C2)C(=O)N1[C@@H](C(=O)N1CCOCC1)c1cc(C)cnc1C | 0.794 | – | – | – | – | – | – | – | – | – | – | – | – | – | –
CC(C)C[C@@H]1C(=O)N[C@H](C2Cc3ccccc3C2)C(=O)N1[C@@H](C(=O)N(C)C)c1ccc(=O)[nH]c1 | 3.16 | – | – | – | – | – | – | > 0.24 | – | – | – | – | 1.3 | 0.39 | 0.63
CC[C@H](C)[C@@H]1C(=O)N[C@H](C2Cc3ccccc3C2)C(=O)N1[C@@H](C(=O)NC)c1ccc(C)nc1C | 0.398 | 1.73 | 1.5 | 51 | 0.058 | 1.32 | 13 | – | 1 | 5 | 6 | 5 | – | – | –
CC[C@H](C)[C@@H]1C(=O)N[C@H](C2Cc3ccccc3C2)C(=O)N1[C@@H](C(=O)N(C)C)c1cnc(C)cc1C | 0.0398 | 2.69 | – | – | 0.14 | 0.72 | 17 | – | 1 | 1 | 32 | 9 | – | – | –
CCC(CC)[C@@H]1C(=O)N[C@H](C2Cc3ccccc3C2)C(=O)N1[C@@H](C(=O)N(C)C)c1ccc(C)nc1 | 0.0501 | 1.81 | 1.2 | 36 | 0.255 | 1.14 | 47 | – | 2 | 1 | 12 | 11 | – | – | –
Cc1ccc([C@H](C(=O)N2CCOCC2)N2C(=O)[C@@H](C3Cc4ccccc4C3)NC(=O)[C@H]2CC2CC2)cn1 | 5.01 | – | – | – | – | – | – | > 0.258 | – | – | – | – | – | – | –
CC[C@H](C)[C@@H]1C(=O)N[C@H](C2Cc3ccccc3C2)C(=O)N1[C@@H](C(=O)N1CCOCC1)c1cnc(C)cc1C | 0.0501 | 1.11 | – | – | – | – | – | – | 1 | 4 | 16 | 1 | – | – | –
CC(C)C[C@@H]1C(=O)N[C@H](C2Cc3ccccc3C2)C(=O)N1[C@@H](C(=O)N(C)C)c1ccc(N(C)C)nc1 | 0.251 | 0.135 | – | – | – | – | – | 0.233 (≈ 474 µM) | – | – | – | – | 2.6 | 0.26 | 0.18
CC[C@H](C)[C@@H]1C(=O)N[C@H](C2Cc3ccccc3C2)C(=O)N1[C@@H](C(=O)NC)c1cc(C)cnc1C | 1.26 | – | – | – | – | – | – | – | 1 | 3 | 5 | 3 | – | – | –
CC[C@@H](C)[C@@H]1C(=O)N[C@H](C2Cc3ccccc3C2)C(=O)N1[C@@H](C(=O)N(C)C)c1ccc(C)nc1 | 1 | 3.35 | 1.38 | 82 | – | – | – | > 0.237 | 1 | 1 | 11 | 3 | – | – | –
CC[C@H](C)[C@@H]1C(=O)N[C@H](C2Cc3ccccc3C2)C(=O)N1[C@@H](C(=O)N(C)C)c1ccc(C)[n+]([O-])c1 | 1 | 0.024 | 1.68 | < 1 | 0.073 | 0.84 | 11 | > 0.242 | 1 | – | 1 | 1 | – | – | –
CC[C@@H](C)[C@@H]1C(=O)N[C@H](C2Cc3ccccc3C2)C(=O)N1[C@@H](C(=O)N1CCOCC1)c1ccc(C)nc1 | 0.501 | 1.59 | 2.34 | 44 | 0.138 | 1.2 | 31 | > 0.28 | 1 | 2 | 8 | 4 | – | – | –
Cc1ccc([C@H](C(=O)N(C)C)N2C(=O)[C@@H](C3Cc4ccccc4C3)NC(=O)[C@H]2CC(C)(C)C)cn1 | 0.0631 | 0.618 | – | – | – | – | – | > 0.242 | 3 | 1 | 8 | 6 | – | – | –
Cc1ccc([C@H](C(=O)N(C)C)N2C(=O)[C@@H](C3Cc4ccccc4C3)NC(=O)[C@H]2CC2CC2)cn1 | 5.01 | – | – | – | – | – | – | 0.23 (≈ 499 µM) | – | – | – | – | – | – | –
CC[C@H](C)[C@@H]1C(=O)N[C@H](C2Cc3ccccc3C2)C(=O)N1[C@@H](C(=O)N1CCOCC1)c1ccc(C)nc1 | 0.158 | 1.45 | 1.62 | 54 | 0.055 | 1.38 | 14 | > 0.268 | 1 | 2 | 6 | 3 | – | – | –
CCC(CC)[C@@H]1C(=O)N[C@H](C2Cc3ccccc3C2)C(=O)N1[C@@H](C(=O)NC)c1ccc(C)nc1C | 0.0501 | 1.25 | – | – | – | – | – | – | 2 | – | 31 | – | – | – | –
CC[C@H](C)[C@@H]1C(=O)N[C@H](C2Cc3ccccc3C2)C(=O)N1[C@@H](C(=O)NC)c1cnc(C)cc1C | 0.0631 | 0.407 | 1.38 | 11 | – | – | – | – | 1 | 4 | 20 | 7 | – | – | –
CCC(CC)[C@@H]1C(=O)N[C@H](C2Cc3ccccc3C2)C(=O)N1[C@@H](C(=O)N1CCOCC1)c1ccc(C)nc1 | 0.0251 | 1.38 | 1.38 | 55 | – | – | – | – | 1 | 5 | 18 | 12 | – | – | –
CC[C@H](C)[C@@H]1C(=O)N[C@H](C2Cc3ccccc3C2)C(=O)N1[C@@H](C(=O)N(C)C)c1ccc(C)nc1 | 0.2 | 2.27 | 1.14 | 62 | 0.347 | 0.6 | 39 | > 0.254 | 1 | 1 | 9 | 2 | – | – | –
